In patent US12071404B2, “Aza (indole)-, benzothiophene-, and benzofuran-3-sulfonamides” (UCB Pharma GmbH, priority 2016, dated 2024):

Key:
GPR17 [1] = molecular target: T1, GPR17 (Homo sapiens, UniProt Q13304); details: activating ligands for GPR17; cited from earlier work
Target sequence in this assay (Q13304 whole entry, species assumed): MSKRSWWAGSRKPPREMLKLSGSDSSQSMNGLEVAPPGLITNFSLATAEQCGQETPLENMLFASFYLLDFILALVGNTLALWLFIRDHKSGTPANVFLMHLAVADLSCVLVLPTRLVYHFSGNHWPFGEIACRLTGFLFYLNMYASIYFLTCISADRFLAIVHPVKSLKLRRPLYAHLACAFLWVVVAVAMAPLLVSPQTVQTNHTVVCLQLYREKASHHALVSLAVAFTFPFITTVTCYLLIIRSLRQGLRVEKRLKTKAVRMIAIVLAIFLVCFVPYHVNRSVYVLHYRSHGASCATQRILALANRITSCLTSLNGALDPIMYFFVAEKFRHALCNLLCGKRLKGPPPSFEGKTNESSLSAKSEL

[2] = Determination of plasma and brain exposure (brain/plasma ratio, brain Kp); format: in vivo; details: male Sprague Dawley rats, 3 mg/kg intraperitoneal, approximately 45 minutes after administration, FIG. 3
Experimental: Male Sprague Dawley rats (n=2 per time point) were used to determine the brain penetration of the compounds at 15, 45 and 120 min after 3 mg/kg of intraperitoneal administration.
At each time point, following anesthesia (inhalation of isoflurane) and blood collection (1 mL cardiac puncture into tubes containing K2EDTA) rats were exsanguinated and the brain perfused via the left ventricle (50 mL of heparinized NaCl 0.9% (0.15 UI/mL) flow 50 mL/min).
Brain was collected and weighed. Plasma was obtained from blood samples by centrifugation (3000 g for 15 min at 4° C.). Brain and plasma samples were frozen until time of analysis.
At the time of analysis, brain samples were homogenized in plasma (1:4 v:v) and together with plasma samples, following protein precipitation, were analyzed by HPLC/MS-MS analysis.

GPR17 [3] = molecular target: T1, GPR17; assay: Calcium mobilization functional assay (GPR17 Ca2+ assay); format: cell-based; design: host or cells: Flp-In T-REx CHO; details: CHO hGPR17 cells, inhibition of 50 nM MDL29,951, Calcium 5 dye, FLIPR; read-out: Ca2+ assay pIC50 (converted)
Summary of the method: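 Flp-In T-REx CHO cells stably expressing human GPR17, doxycycline-induced (1 μg/mL, 16-20 h), loaded 60 min with Calcium 5 dye. Inhibition by varying test-compound concentrations of the 50 nM MDL29,951 agonist response was read by fluorescence over time at room temperature. pIC50 came from 4-parameter logistic fitting.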
Target sequence in this assay (Q13304 whole entry): as the sequence (Q13304 whole entry, species assumed) above

GPR17 [4] = molecular target: T1, GPR17; assay: cAMP accumulation functional assay (HTRF, Schild analysis); format: cell-based; design: host or cells: Flp-In T-REx CHO; details: CHO hGPR17 cells, Schild analysis vs MDL29,951, 5 μM forskolin, read-out: cAMP assay pA2 (converted)
Summary of the method: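 CHO Flp-In T-REx cells with doxycycline-induced human GPR17 were preincubated 30 min at room temperature in HBSS-HEPES pH 7.4 with antagonist. cAMP was then measured by HTRF after 60 min. MDL29,951 pEC50 shifts gave dose ratios, and Schild analysis gave pA2.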
Target sequence in this assay (Q13304 whole entry): as the sequence (Q13304 whole entry, species assumed) above

[5] = tested on: primary oligodendrocyte progenitor cells (OPCs); assay: MBP fiber plates oligodendrocyte maturation/myelination assay; format: cell-based, rat; details: OPCs on aligned fiber plates, 1 μM test compound, 6 days, FIG. 2
Experimental: Primary oligodendrocyte progenitor cells (OPCs) were isolated from the forebrains of Wistar rat pups at postnatal day 0 to 2. Cerebra were mechanically dissociated with a syringe and two different hollow needles (first 1.2×40 and then 0.60×30). Clump-free cell suspension was filtered through a 70-μm cell strainer and plated into poly-D-lysine-coated 75-cm^2 culture flasks in DMEM supplemented with 10% (v/v) heat-inactivated fetal calf serum, penicillin (100 units/mL), and streptomycin (0.1 mg/mL) with medium exchanged every second day. After 8 to 11 days at 37° C. in a humidified atmosphere of 5% CO2, mixed cultures were shaken at 240 rpm for 14-24 h to detach OPCs from astrocytes and microglia. To further enrich for OPCs, the suspension was plated onto uncoated Petri dishes for 45 min. Then, OPCs were seeded into poly-L-ornithine-coated plates and maintained at 37° C. in a humidified atmosphere of 5% CO2 in proliferating Neurobasal medium supplemented with 2% (v/v) B27, 2 mM GlutaMAX, 100 units/mL penicillin, 0.1 mg/mL streptomycin, 10 ng/mL PDGF-AA, and 10 ng/mL basic FGF changing the medium every second day.
The effects of negative modulators of GPR17 on primary oligodendrocytes maturation/myelination can be assessed in vitro by immunoassays using antibodies directed against Myelin Basic Protein (MBP), as marker for mature oligodendrocytes. […]

[6] = tested on: cuprizone-induced demyelination; assay: Acute cuprizone mice model (PLP immunohistochemistry in corpus callosum); format: in vivo, C57BI/6 J mice; details: oral, daily, 6 mg/kg and 20 mg/kg, vs vehicle p<0.01, FIG. 5
[7] = exposure to air and light; cited from earlier work
[8] = cited from earlier work
[9] = in vivo; cited from earlier work

IC50 (GPR17 [3]) [nM] | Kb (GPR17 [4]) [nM] | SMILES | other results
 |  | NCC(=O)CCC(=O)O [Compound 5-ALA, 5 amino levulinic acid] | amounts needed in the GPR17 assays (reported affinity quite low) (GPR17 [1]): three digit micromolar range
> 31.6 | > 31.6 | O=S(=O)(Nc1ccc(F)cc1F)c1c[nH]c2cc(Cl)ccc12 [Compound I-1, 6-chloro-N-(2,4-difluorophenyl)-1H-indole-3-sulfonamide] | brain concentrations versus plasma exposure [2]: displayed brain concentrations paralleling plasma exposure
< 3.16 | < 3.16 | N#Cc1ccc(NS(=O)(=O)c2c[nH]c3cc(Cl)ccc23)c(F)c1 [Compound I-116, 6-chloro-N-(4-cyano-2-fluorophenyl)-1H-indole-3-sulfonamide] | myelin sheath length (myelinated fibers by fiber length) [5]: induced longer myelin sheaths
 |  | O=S(=O)(Nc1cc(F)c(Br)cc1F)c1c[nH]c2nc(Cl)ccc12 [Compound I-228, N-(4-bromo-2,5-difluorophenyl)-6-chloro-1H-pyrrolo[2,3-b]pyridine-3-sulfonamide] | reappearance of myelin-associated proteins (PLP levels in corpus callosum) [6]: accelerates the reappearance of the myelin-associated proteins
3.16 to 31.6 | 3.16 to 31.6 | COc1nc(NS(=O)(=O)c2c[nH]c3c(Cl)c(F)ccc23)c(F)cc1Cl [Compound I-357, 7-chloro-N-(5-chloro-3-fluoro-6-methoxypyridin-2-yl)-6-fluoro-1H-indole-3-sulfonamide] | 
3.16 to 31.6 | 3.16 to 31.6 | COc1nc(NS(=O)(=O)c2c[nH]c3c(F)c(Cl)ccc23)c(F)cc1F [Compound I-358, 6-chloro-N-(3,5-difluoro-6-methoxypyridin-2-yl)-7-fluoro-1H-indole-3-sulfonamide] | 
3.16 to 31.6 | 3.16 to 31.6 | CCOC(=O)C1CC1c1cc(F)c(NS(=O)(=O)c2c[nH]c3cc(Cl)ccc23)nc1F (stereo not shown) [Compound I-359, ethyl 2-(6-{[(6-chloro-1H-indol-3-yl)sulfonyl]amino}-2,5-difluoropyridin-3-yl)cyclopropanecarboxylate] | 
< 3.16 | < 3.16 | N#CCOc1cc(F)c(NS(=O)(=O)c2c[nH]c3c2ccc2cccnc23)cc1F [Compound I-360, N-[4-(cyanomethoxy)-2,5-difluorophenyl]-1H-pyrrolo[3,2-h]quinoline-3-sulfonamide] | 
< 3.16 | < 3.16 | N#CCc1cc(F)c(NS(=O)(=O)c2c[nH]c3c2ccc2cccnc23)cc1F [Compound I-361, N-[4-(cyanomethyl)-2,5-difluorophenyl]-1H-pyrrolo[3,2-h]quinoline-3-sulfonamide] | 
3.16 to 31.6 | < 3.16 | N#CCCc1cc(F)c(NS(=O)(=O)c2c[nH]c3c2ccc2cccnc23)cc1F [Compound I-362, N-[4-(2-cyanoethyl)-2,5-difluorophenyl]-1H-pyrrolo[3,2-h]quinoline-3-sulfonamide] | 
3.16 to 31.6 | 3.16 to 31.6 | O=S(=O)(Nc1cc(F)c(OC(F)F)cc1F)c1c[nH]c2nc(C(F)F)ccc12 [Compound I-363, N-[4-(difluoromethoxy)-2,5-difluorophenyl]-6-(difluoromethyl)-1H-pyrrolo[2,3-b]pyridine-3-sulfonamide] | 
< 3.16 | < 3.16 | O=S(=O)(Nc1nc(F)c(OCCF)cc1F)c1c[nH]c2cc(Cl)ccc12 [Compound I-364, 6-chloro-N-[3,6-difluoro-5-(2-fluoroethoxy)pyridin-2-yl]-1H-indole-3-sulfonamide] | 
3.16 to 31.6 | 3.16 to 31.6 | COCCOc1cc(F)c(NS(=O)(=O)c2c[nH]c3cc(Cl)ccc23)nc1F [Compound I-365, 6-chloro-N-[3,6-difluoro-5-(2-methoxyethoxy)pyridin-2-yl]-1H-indole-3-sulfonamide] | 
3.16 to 31.6 | 3.16 to 31.6 | COc1nc(NS(=O)(=O)c2c[nH]c3c(OC(F)F)c(Cl)ccc23)c(F)cc1F [Compound I-366, 6-chloro-7-(difluoromethoxy)-N-(3,5-difluoro-6-methoxypyridin-2-yl)-1H-indole-3-sulfonamide] | 
 |  | NCc1[nH]cc(CCC(=O)O)c1CC(=O)O [PBG, porphobilinogen] | amounts needed in the GPR17 assays (reported affinity quite low) (GPR17 [1]): mM range; chemical stability [7]: rapidly decomposes after exposure to air and light
 |  | CC(C)(O)c1ccccc1CC[C@@H](SCC1(CC(=O)O)CC1)c1cccc(/C=C/c2ccc3ccc(Cl)cc3n2)c1 [montekulast, Montelukast] | protein binding [8]: high protein binding; brain penetration [9]: poor brain penetration
 |  | O=C(Nc1cccc2c(=O)cc(-c3nnn[nH]3)oc12)c1ccc(OCCCCc2ccccc2)cc1 [pranlukast] | protein binding [8]: high protein binding; brain penetration [9]: poor brain penetration
